# Where two headings read alike, the source gives them in different places.
# What was measured:
# [1] = tested on: PAM4821 producing CTX-M-25; test: MIC, engineered isogenic strain; type: cell-based, P. aeruginosa; conditions: CTX-M-25, class A; BLIs at fixed 4 µg/mL
# PAM4135 producing KPC-2 = test: MIC, engineered isogenic strain; type: cell-based, P. aeruginosa; conditions: KPC-2, class A; BLIs at fixed 4 µg/mL
# PAM4842 producing PER-2 = test: MIC, engineered isogenic strain; type: cell-based, P. aeruginosa; conditions: PER-2, class A; BLIs at fixed 4 µg/mL
# PAM4744 producing SME-2 = test: MIC, engineered isogenic strain; type: cell-based, P. aeruginosa; conditions: SME-2, class A; BLIs at fixed 4 µg/mL
# PAM4878 producing TEM-10 = test: MIC, engineered isogenic strain; type: cell-based, P. aeruginosa; conditions: TEM-10, class A; BLIs at fixed 4 µg/mL
# PAM4910 producing VEB-2 = test: MIC, engineered isogenic strain; type: cell-based, P. aeruginosa; conditions: VEB-2, class A; BLIs at fixed 4 µg/mL
# PAM4745 producing P99 = test: MIC, engineered isogenic strain; type: cell-based, P. aeruginosa; conditions: P99, class C; BLIs at fixed 4 µg/mL
# PAM4869 producing PDC-1 = test: MIC, engineered isogenic strain; type: cell-based, P. aeruginosa; conditions: PDC-1, class C; BLIs at fixed 4 µg/mL
# PAM4846 producing OXA-9 = test: MIC, engineered isogenic strain; type: cell-based, P. aeruginosa; conditions: OXA-9, class D; BLIs at fixed 4 µg/mL
# PAM4217 producing OXA-48 = test: MIC, engineered isogenic strain; type: cell-based, P. aeruginosa; conditions: OXA-48, class D; BLIs at fixed 4 µg/mL
# PAM4875 producing OXA-23 = test: MIC, engineered isogenic strain; type: cell-based, P. aeruginosa; conditions: OXA-23, class D; BLIs at fixed 4 µg/mL
# [2] = tested on: carbapenem-resistant strains of Enterobacterales with cefepime-taniborbactam MIC >8 µg/mL; test: MIC testing of CRE with reduced cefepime-taniborbactam susceptibility (Table 6, Fig 1); type: cell-based
# Procedure: Isolates were tested for antimicrobial susceptibility using the broth microdilution methodology per CLSI M07 (2018) guidelines ([40]). JMI Laboratories produced frozen-form 96-well panels with cation-adjusted Mueller-Hinton broth as the testing medium. Current CLSI quality assurance practices were followed when performing the susceptibility tests. MIC values were validated by concurrently testing the following CLSI-recommended ([27]) QC reference strains: E. coli NCTC 13353 (CTX-M-15), Klebsiella pneumoniae ATCC BAA-2814 (KPC-3), Klebsiella pneumoniae ATCC BAA-1705 (KPC-2), and K. pneumoniae ATCC 700603 (SHV-18). The inoculum density during susceptibility testing was monitored by bacterial colony counts. Where applicable, QC ranges for tested reference strains were those approved or published by the CLSI ([27]).
# [3] = tested on: ESBL-producing and carbapenem-resistant Enterobacterales (All, N = 1028); test: organism not typed; type: cell-based
smiles,measurement,setting,value
"C[C@@H](O)[C@H]1C(=O)N2C(C(=O)O)=C(S[C@@H]3CN[C@H](C(=O)N(C)C)C3)[C@H](C)[C@H]12 [MEM, meropenem]",MIC,[1],0.5 µg/mL
same,MIC,PAM4135 producing KPC-2,32 µg/mL
same,MIC,PAM4842 producing PER-2,0.125 µg/mL
same,MIC,PAM4744 producing SME-2,8 µg/mL
same,MIC,PAM4878 producing TEM-10,0.125 µg/mL
same,MIC,PAM4910 producing VEB-2,0.25 µg/mL
same,MIC,PAM4745 producing P99,1 µg/mL
same,MIC,PAM4869 producing PDC-1,0.5 µg/mL
same,MIC,PAM4846 producing OXA-9,0.25 µg/mL
same,MIC,PAM4217 producing OXA-48,4 µg/mL
same,MIC,PAM4875 producing OXA-23,2 µg/mL
same,MIC50,[2],> 64 µg/mL
same,MIC90,[2],> 64 µg/mL
same,MIC50,[2]; All MBL (N = 129),> 64 µg/mL
same,MIC90,[2]; All MBL (N = 129),> 64 µg/mL
same,MIC50,[2]; IMP (N = 20),16 µg/mL
same,MIC90,[2]; IMP (N = 20),64 µg/mL
same,MIC50,[2]; KPC and OXA-48 (N = 12),32 µg/mL
same,MIC90,[2]; KPC and OXA-48 (N = 12),> 64 µg/mL
same,MIC50,[2]; MBL negative (N = 34),16 µg/mL
same,MIC90,[2]; MBL negative (N = 34),> 64 µg/mL
same,MIC50,[2]; NDN (N = 101),> 64 µg/mL
same,MIC90,[2]; NDN (N = 101),> 64 µg/mL
same,MIC50,[2]; Non-CP CRE (N = 22),16 µg/mL
same,MIC90,[2]; Non-CP CRE (N = 22),32 µg/mL
same,MIC50,[2]; VIM (N = 8),> 64 µg/mL
same,MIC50,[3]; read-out: MIC50,0.5 µg/mL
same,MIC90,[3]; read-out: MIC90,> 64 µg/mL

# — PMC10648875 (Antimicrobial Agents and Chemotherapy, 2023)
